Data from patent US20150164899A1, “INHIBITION OF ADAPTOR ASSOCIATED KINASE 1 FOR THE TREATMENT OF PAIN” (priority 2012, published 2015).
pIC50: −log10 of the molar value.

Target: T1, AAK1 (full length human) in transfected HEK293F cells (Homo sapiens, UniProt Q2M2I8)
T1 construct: expressed in transfected cells; host or cells: HEK293F
Assay: HEK281 cell-based assay (phospho-mu2 Western blot)
Details: HEK281 cell-based assay, Table 1 imidazo[1,2-b]pyridazines; read-out: CBA IC50
Experimental: HEK293F cells were cultured in media containing DMEM (Gibco, cat. #11965), 10% FBS (SAFC Biosciences, cat. #12103C), 1×GPS (glutamine, penicillin and streptomycin). On day one, cells were plated on a 10 cm dish so that they are ˜80% confluent at time of transfection. Roughly 12 million cells were in a 10 cm dish at time of transfection. On day two, each dish was transfected with 48 ug DNA and 144 ul Lipofectamine 2000 (Invitrogen, cat.#11668-019). The DNA was comprised of a mixture (per 10 cm dish) containing 3 ug AAK1/HA/pIRES (full length human, NCBI accession no. NP_055726.2), 45 μg Flag/AP2MI/pcDNA (full length human), and 1.5 ml OPTI-MEM. The Lipofectamine 2000 is made up of a mixture (per 10 cm dish) containing 144 μl Lipofectamine 2000 and 1.5 ml OPTI-MEM. Each mixture was transferred to individual 15 ml tubes and incubated at RT for 5 minutes, and then the two mixes were combined and incubated at RT for 20 minutes. Growth media was then aspirated from each 10 cm plate and replaced with 10 ml of DMEM+10% FBS (no GPS). Finally, 3 ml DNA/Lipofectamine mix was added to each 10 cm dish and mix gently followed by incubate of plate overnight at 37° C. and 5% CO2.
On day three, compounds were diluted in 100% DMSO at 1000× final concentration, followed by 3-fold serial dilutions for a total of 5 concentrations tested. Four compounds were tested per 10 cm dish. One ul of each compound dilution was then pipetted into a deep-well, 96-well plate, followed by addition of 500 μl DMEM+0.5% FBS into each well for a 2× final concentration of each compound. Cells were resuspended in a 10 cm dish by simple pipetting (HEK293 cells come off the plate that easy at this point) and then transferred to a 50 ml conical tube and pelleted by centrifugation at 1000 rpm for 5 min. Cell pellets were then resuspended in 2.75 ml DMEM+0.5% FBS per 10 cm dish and 100 μl of cell suspension transferred into each well of 96-well TC plate. Finally, 100 μl of 2× compound diluted in DMEM+0.5% FBS was then added into wells containing cell suspension for a 1× final concentration. Plates were then incubated at 37° C. and 5% CO2 for 3 hours followed by transferring of cell suspensions from each well into 12-tube PCR strips. The PCR strips were spun in a tip rack at 1000 rpm for 5 minutes to pellet cells and media was then removed by pipetting without disturbing the cell pellet.
To prepare for Western Blot analysis, cell pellets were resuspend in 40 ul 1×LDS-PAGE sample buffer (Invitrogen, cat.# NP0008)+2× Halt phophatase and protease inhibitor cocktail (Thermo Scientific, cat.#1861284), followed by sonicating each with microtip sonicator set at 5 for 8-10 seconds. Five ul of 10× NuPage Sample Reducing Agent (with […]) was to each sample followed by heat denaturing at 70 C. for 10 min on PCR machine. A total of 10 μl per sample was loaded into each lane of a 4-20% Tris-Glycine Criterion 26-well gel (Biorad, cat.#345-0034) for the phospho-mu2 blot and 10 μl per lane in a 4-12% Bis-Tris (+MES buffer) NuPAGE 26-well gel (Invitrogen, cat.# WG1403BX10) for the mu2 blot. For controls, 2 ng of phospho-mu2 or 20 ng mu2/Flag proteins were loaded in the last well of each gel. After SDS-PAGE, samples on each gel were transferred to PVDF membrane using an iBlot and membranes were blocked for one hour in TBST+5% milk, followed by wash 3× for 5-10 min with TBST. Criterion gels were probed with rabbit anti-phospho-mu2 (1:5000; a rabbit polyclonal antibody produced by New England Peptide and affinity purified at Lexicon) in TBST+5% BSA, whereas, NuPAGE gels were probed with mouse anti-Flag (1:500; Sigma, cat.# F1804) in TBST+5% milk, and these primary antibodies were incubated overnight at 4° C. on a rocker.

T1 sequence (Q2M2I8 1-863 isoform Q2M2I8-2): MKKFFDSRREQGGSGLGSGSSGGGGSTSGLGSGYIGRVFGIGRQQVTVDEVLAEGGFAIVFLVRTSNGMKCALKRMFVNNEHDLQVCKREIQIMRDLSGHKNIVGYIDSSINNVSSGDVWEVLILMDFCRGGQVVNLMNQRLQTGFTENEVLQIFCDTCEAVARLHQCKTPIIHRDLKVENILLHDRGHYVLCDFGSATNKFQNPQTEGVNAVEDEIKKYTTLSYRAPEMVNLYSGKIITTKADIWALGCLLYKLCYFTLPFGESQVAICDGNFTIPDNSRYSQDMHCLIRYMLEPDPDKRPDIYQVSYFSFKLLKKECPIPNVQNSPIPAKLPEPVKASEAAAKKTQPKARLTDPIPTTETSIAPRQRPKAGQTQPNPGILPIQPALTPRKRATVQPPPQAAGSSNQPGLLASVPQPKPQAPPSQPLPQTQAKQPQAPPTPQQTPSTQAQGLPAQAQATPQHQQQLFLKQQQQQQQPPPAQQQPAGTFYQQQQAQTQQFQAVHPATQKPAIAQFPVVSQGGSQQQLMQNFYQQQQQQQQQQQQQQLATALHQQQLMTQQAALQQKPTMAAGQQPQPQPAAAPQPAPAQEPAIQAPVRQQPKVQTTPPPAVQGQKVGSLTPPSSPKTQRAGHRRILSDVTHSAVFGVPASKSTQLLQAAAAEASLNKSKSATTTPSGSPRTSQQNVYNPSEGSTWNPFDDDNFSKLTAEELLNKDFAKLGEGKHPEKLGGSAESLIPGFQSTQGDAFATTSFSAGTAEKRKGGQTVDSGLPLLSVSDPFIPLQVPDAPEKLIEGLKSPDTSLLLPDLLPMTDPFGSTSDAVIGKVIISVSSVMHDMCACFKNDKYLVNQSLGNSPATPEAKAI

SMILES | pIC50
COc1cnccc1-c1cnc2ccc(-c3cccc(C(=O)CCC(C)C)c3)nn12 | ≥ 7.00
CC(C)CCC(=O)c1cccc(-c2ccc3ncc(-c4ccc(CN)cc4)n3n2)c1 | ≥ 7.00
CC(=O)c1cccc(-c2ccc3ncc(-c4ccc(CN)cc4)n3n2)c1 | ≥ 7.00
CC(C)CNC(=O)c1cccc(-c2ccc3ncc(-c4ccc(CN)cc4)n3n2)c1 | ≥ 7.00
CCCCNc1ccc2ncc(-c3ccc(CN)c(F)c3)n2n1 | ≥ 6.00
NCc1ccc(-c2cnc3ccc(NCC4CCCCC4)nn23)cc1 | ≥ 6.00
CN(C)CCOCc1ccc(-c2cnc3ccc(NCCC(C)(C)C)nn23)cc1 | ≥ 7.00
CC(C)(C)OCCNc1ccc2ncc(-c3ccc(C(N)=O)cc3)n2n1 | ≥ 7.00
COc1cccc(CCNc2ccc3ncc(-c4ccc(C(N)=O)cc4)n3n2)c1 | ≥ 7.00
CC(C)CNC(=O)c1cncc(-c2ccc3ncc(-c4ccc(CN)cc4)n3n2)c1 | ≥ 7.00
CCCCNc1ccc2ncc(C(=O)Nc3ccc(C(=O)NCCN(C)C)cc3)n2n1 | ≥ 7.00
COc1cnccc1-c1cnc2ccc(-c3cccc(C(=O)NCC(C)C)c3)nn12 | ≥ 7.00
CNC(=O)c1ccc(-c2cnc3ccc(-c4cccc(C(=O)NCC(C)C)c4)nn23)cc1 | ≥ 7.00
CC(C)NC(=O)N1CCN(c2ccc3ncc(-c4ccccc4)n3n2)CC1 | ≥ 7.00
CCCCSc1ccc2ncc(-c3ccc(CN)cc3)n2n1 | ≥ 6.00
CC(C)OC(=O)N1CCC[C@H]1CNc1ccc2ncc(Cl)n2n1 | ≥ 7.00
CC(C)(C)OC(=O)N1CCC[C@H]1CCNc1ccc2ncc(-c3ccc(CN)cc3)n2n1 | ≥ 7.00
CN(CCNc1ccc2ncc(-c3ccc(C#N)cc3)n2n1)C(=O)OC(C)(C)C | ≥ 7.00
CN(CCNc1ccc2ncc(-c3ccccc3)n2n1)C(=O)OC(C)(C)C | ≥ 7.00

Same assay, conditions: HEK281 cell-based assay; pyrazolo[1,5-a]pyrimidine-based inhibitors; read-out: CBA IC50

SMILES | pIC50
COc1ncccc1-c1cnn2ccc(N3CCN(C(=O)CC(C)C)CC3)nc12 | ≥ 7.00
COCCOC(=O)N1CCN(c2ccn3ncc(-c4cccnc4OC)c3n2)CC1 | ≥ 7.00
COc1cnccc1-c1cnn2ccc(NCCc3ccccc3OC(F)(F)F)nc12 | ≥ 8.00
NCc1ccc(-c2cnn3ccc(NCCOC4CCCC4)nc23)cc1 | ≥ 7.00
CC(C)(C)COCCNc1ccn2ncc(-c3ccc(CN)cc3)c2n1 | ≥ 7.00
CC(C)(C)OCCNc1ccn2ncc(-c3ccc(CN)cc3)c2n1 | ≥ 7.00
NCc1ccc(-c2cnn3ccc(NCCc4ccccc4OC(F)(F)F)nc23)cc1 | ≥ 8.00
COCCNc1ccn2ncc(-c3ccc(CN)cc3)c2n1 | ≥ 7.00
NCc1ccc(-c2cnn3ccc(NCCCOC4CCCC4)nc23)cc1 | ≥ 7.00
CCCCNc1ccn2ncc(-c3ccc(CN)cc3)c2n1 | ≥ 7.00
COc1ccncc1-c1cnn2ccc(NCCc3ccccc3OC(F)(F)F)nc12 | ≥ 7.00
Brc1cnn2ccc(NCCCOC3CCCC3)nc12 | ≥ 6.00
CCCCNc1ccn2ncc(-c3ccc(C(=O)NCCNC)cc3)c2n1 | ≥ 7.00
COc1cnccc1-c1cnn2ccc(NCCOC3CCCC3)nc12 | ≥ 7.00
COc1cnccc1-c1cnn2ccc(NCCOC(C)(C)C)nc12 | ≥ 7.00
COCCNc1ccn2ncc(-c3ccc(C(=O)NCCN)cc3)c2n1 | ≥ 6.00
CC(C)(C)CCNc1ccn2ncc(-c3ccc(C(=O)NCCN)cc3)c2n1 | ≥ 6.00
CCCCNc1ccn2ncc(-c3ccc(C(=O)NCCN)cc3)c2n1 | ≥ 7.00
COCCNc1ccn2ncc(-c3ccccc3)c2n1 | ≥ 6.00
COc1cnccc1-c1cnn2ccc(NCCCOC3CCCC3)nc12 | ≥ 7.00
COc1ccccc1-c1cnn2ccc(NC[C@@H]3CCCN3C(=O)NC(C)(C)C)nc12 | ≥ 7.00
CCc1ccccc1-c1cnn2ccc(NC[C@@H]3CCCN3C(=O)OC(C)(C)C)nc12 | ≥ 7.00
CC(C)(C)OC(=O)N1CCC[C@H]1CNc1ccn2ncc(-c3ccc(C(N)=O)cc3)c2n1 | ≥ 6.00

SMILES | pIC50
CC(C)(C)OC(=O)N1CCC[C@H]1CNc1ccn2ncc(C(F)(F)F)c2n1 | ≥ 7.00
CC(C)(C)OC(=O)N1CCC[C@H]1CNc1ccn2ncc(I)c2n1 | ≥ 7.00
CC(C)(C)OC(=O)N1CCC[C@H]1CNc1ccn2ncc(-c3ccccc3)c2n1 | ≥ 7.00
CCOC(=O)N(C)CCNc1ccn2ncc(-c3ccc(C(=O)NC)cc3)c2n1 | ≥ 7.00
CNC(=O)c1ccc(-c2cnn3ccc(NCCN(C)C(=O)OCC(C)C)nc23)cc1 | ≥ 6.00
CC(C)OC(=O)N1CCN(c2ccn3ncc(-c4cccn(C)c4=O)c3n2)CC1 | ≥ 7.00
CCOc1ncccc1-c1cnn2ccc(N3CCN(C(=O)OC(C)C)CC3)nc12 | ≥ 7.00
CC(C)OC(=O)N1CCN(c2ccn3ncc(-c4cccnc4F)c3n2)CC1 | ≥ 7.00
COc1nc(C)ccc1-c1cnn2ccc(N3CCN(C(=O)OC(C)C)CC3)nc12 | ≥ 7.00
COc1cnccc1-c1cnn2ccc(N3CCN(C(=O)OC(C)C)CC3)nc12 | ≥ 7.00
COc1ncc(F)cc1-c1cnn2ccc(N3CCN(C(=O)OC(C)C)CC3)nc12 | ≥ 7.00
COc1cnccc1-c1cnn2ccc(NCCN(C)C(=O)OC(C)C)nc12 | ≥ 8.00
CC(C)OC(=O)N(C)CCNc1ccn2ncc(-c3ccc(CN)cc3)c2n1 | ≥ 7.00
CC(C)OC(=O)N(C)CCNc1ccn2ncc(-c3ccc(C(N)=O)cc3)c2n1 | ≥ 8.00
COc1ccncc1-c1cnn2ccc(NCCN(C)C(=O)OC(C)C)nc12 | ≥ 7.00
CNCCNC(=O)c1ccc(-c2cnn3ccc(NCCN(C)C(=O)OC(C)C)nc23)cc1 | ≥ 7.00
CNC(=O)c1ccc(-c2cnn3ccc(NCCN(C)C(=O)OC(C)C)nc23)cc1 | ≥ 8.00
CC(C)OC(=O)N(C)CCNc1ccn2ncc(-c3ccc(C4CCCN4)cc3)c2n1 (stereo not shown) | ≥ 8.00
COCCNc1ccn2ncc(-c3ccc(C(=O)NCCNC(=O)OC(C)(C)C)cc3)c2n1 | ≥ 6.00
COc1cnccc1-c1cnn2ccc(NCCN(C)C(=O)OC(C)(C)C)nc12 | ≥ 8.00
CN(CCNc1ccn2ncc(-c3ccc(C(N)=O)cc3)c2n1)C(=O)OC(C)(C)C | ≥ 8.00
CNC(=O)c1ccc(-c2cnn3ccc(NCCN(C)C(=O)OC(C)(C)C)nc23)cc1 | ≥ 8.00
